Assay results reported in patent US7396837B2, “Antitumoral analogs of lamellarins” (Pharma Mar, S.A.U., priority 2002, dated 2008).

What was measured:
Assay type in all cases: cell-based
SKOV-3 = experiment: SRB colorimetric cell growth inhibition assay, SKOV-3; conditions: Homo sapiens; for GI50: SK-OV-3, SKOV-3, GI=growth inhibition, read-out: GI50 SKOV-3; for CC50 / IC (TGI): SK-OV-3, SKOV-3; for CC50: LC=cell killing (cytotoxic effect), read-out: LC50 SKOV-3; for IC (TGI): TGI=total growth inhibition (cytostatic effect), read-out: TGI SKOV-3
Outline: (§1)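 Growth and viability quantified by sulforhodamine B staining in 96-well microplates. Triplicate wells give mean ± SD; derived endpoints are GI, TGI (cytostatic) and LC (cytotoxic).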

[1] = SRB colorimetric cell growth inhibition assay, H-MEC-1; conditions: human, H-MEC-1 cells, H-MEC-1; LC=cell killing (cytotoxic effect); read-out: LC50 H-MEC-1
Outline: as §1

H-MEC-1 = experiment: as above; conditions: Homo sapiens, HMEC-1, H-MEC-1; for GI50: GI=growth inhibition; for IC (TGI): TGI=total growth inhibition (cytostatic effect), read-out: TGI H-MEC-1
Outline: as §1

IGROV = experiment: SRB colorimetric cell growth inhibition assay, IGROV; conditions: Homo sapiens, IGROV; for GI50: GI=growth inhibition, read-out: GI50 IGROV; for CC50: LC=cell killing (cytotoxic effect), read-out: LC50 IGROV; for IC (TGI): TGI=total growth inhibition (cytostatic effect), read-out: TGI IGROV
Outline: (§2)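 Sulforhodamine B colorimetric readout measured cell growth and viability after continuous compound exposure of human cancer cell lines in 96-well plates. Triplicate wells gave mean ± SD, from which growth inhibition (GI), cytostatic total growth inhibition (TGI) and cytotoxic cell killing (LC) were calculated.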

LoVo = experiment: SRB colorimetric cell growth inhibition assay, LoVo; conditions: Homo sapiens, LoVo; for GI50: GI=growth inhibition, read-out: GI50 LOVO; for CC50: LC=cell killing (cytotoxic effect), read-out: LC50 LOVO; for IC (TGI): TGI=total growth inhibition (cytostatic effect), read-out: TGI LOVO
Outline: as §2

SK-BR-3 = experiment: SRB colorimetric cell growth inhibition assay, SK-BR-3; conditions: Homo sapiens, SK-BR-3, SK-BR-3; for GI50: GI=growth inhibition, read-out: GI50 SK-BR-3; for CC50: LC=cell killing (cytotoxic effect), read-out: LC50 SK-BR-3; for IC (TGI): TGI=total growth inhibition (cytostatic effect), read-out: TGI SK-BR-3
Outline: as §2

LoVo-Dox = experiment: SRB colorimetric cell growth inhibition assay, LoVo-Dox (MDR); conditions: Homo sapiens, LOVO-DOX; for GI50: GI=growth inhibition, read-out: GI50 LOVO-DOX; for CC50: LC=cell killing (cytotoxic effect), read-out: LC50 LOVO-DOX; for IC (TGI): TGI=total growth inhibition (cytostatic effect), read-out: TGI LOVO-DOX
Outline: as §2

DU-145 = experiment: SRB colorimetric cell growth inhibition assay, DU-145; conditions: Homo sapiens, DU-145, DU-145; for GI50: GI=growth inhibition, read-out: GI50 DU-145; for CC50: LC=cell killing (cytotoxic effect), read-out: LC50 DU-145; for IC (TGI): TGI=total growth inhibition (cytostatic effect), read-out: TGI DU-145
Outline: as §2

IGROV-ET = experiment: SRB colorimetric cell growth inhibition assay, IGROV-ET (ET-743 resistant); conditions: Homo sapiens, IGROV-ET; for GI50: GI=growth inhibition, read-out: GI50 IGROV-ET; for CC50: LC=cell killing (cytotoxic effect), read-out: LC50 IGROV-ET; for IC (TGI): TGI=total growth inhibition (cytostatic effect), read-out: TGI IGROV-ET
Outline: as §2

PANC-1 = experiment: SRB colorimetric cell growth inhibition assay, PANC-1; conditions: Homo sapiens, PANC-1, PANC-1; for GI50: GI=growth inhibition, read-out: GI50 PANC-1; for CC50: LC=cell killing (cytotoxic effect), read-out: LC50 PANC-1; for IC (TGI): TGI=total growth inhibition (cytostatic effect), read-out: TGI PANC-1
Outline: as §2

SK-MEL-28 = experiment: SRB colorimetric cell growth inhibition assay, SK-MEL-28; conditions: Homo sapiens, SK-MEL-28, MEL-28; for GI50: GI=growth inhibition, read-out: GI50 MEL-28; for CC50: LC=cell killing (cytotoxic effect), read-out: LC50 MEL-28; for IC (TGI): TGI=total growth inhibition (cytostatic effect), read-out: TGI MEL-28
Outline: as §2

LNCaP = experiment: SRB colorimetric cell growth inhibition assay, LNCaP; conditions: Homo sapiens, LNCaP, LN-caP; for GI50: GI=growth inhibition, read-out: GI50 LN-caP; for CC50: LC=cell killing (cytotoxic effect), read-out: LC50 LN-caP; for IC (TGI): TGI=total growth inhibition (cytostatic effect), read-out: TGI LN-caP
Outline: as §2

HT-29 = experiment: SRB colorimetric cell growth inhibition assay, HT-29; conditions: Homo sapiens, HT-29, HT-29; for GI50: GI=growth inhibition, read-out: GI50 HT-29; for CC50: LC=cell killing (cytotoxic effect), read-out: LC50 HT-29; for IC (TGI): TGI=total growth inhibition (cytostatic effect), read-out: TGI HT-29
Outline: as §2

K-562 = experiment: SRB colorimetric cell growth inhibition assay, K-562; conditions: Homo sapiens, K562, K-562; for GI50: GI=growth inhibition, read-out: GI50 K-562; for CC50: LC=cell killing (cytotoxic effect), read-out: LC50 K-562; for IC (TGI): TGI=total growth inhibition (cytostatic effect), read-out: TGI K-562
Outline: as §2

A-549 = experiment: SRB colorimetric cell growth inhibition assay, A-549; conditions: Homo sapiens, A549, A-549; for GI50: GI=growth inhibition, read-out: GI50 A-549; for CC50: LC=cell killing (cytotoxic effect), read-out: LC50 A-549; for IC (TGI): TGI=total growth inhibition (cytostatic effect), read-out: TGI A-549
Outline: as §2

**Q.** Which GI50 (SKOV-3) does the source give for `COc1cc2c(cc1OC)-c1c(-c3ccc(OC(=O)[C@H](C)N)c(OC)c3)c3c4cc(OC)c(OC(=O)[C@H](C)N)cc4oc(=O)c3n1CC2` [Compound 63] here?
**A.** 3.06 µM

**Q.** What about the CC50 (SKOV-3) of the same molecule?
**A.** 11.1 µM

**Q.** And the IC (TGI) (SKOV-3)?
**A.** 5.84 µM

**Q.** What about the CC50 [1] of the same molecule?
**A.** 10.1 µM

**Q.** What about the GI50 (H-MEC-1) of the same molecule?
**A.** 2.72 µM

**Q.** What about the IC (TGI) (H-MEC-1) of the same molecule?
**A.** 5.25 µM

**Q.** What about the GI50 (IGROV) of the same molecule?
**A.** 0.975 µM

**Q.** What about the CC50 (IGROV) of the same molecule?
**A.** 14.6 µM

**Q.** What about the IC (TGI) (IGROV) of the same molecule?
**A.** 3.86 µM

**Q.** What about the GI50 (LoVo) of the same molecule?
**A.** 1.46 µM

**Q.** And the CC50 (LoVo)?
**A.** 9.11 µM

**Q.** What about the IC (TGI) (LoVo) of the same molecule?
**A.** 3.68 µM

**Q.** What about the GI50 (SK-BR-3) of the same molecule?
**A.** 1.57 µM

**Q.** And the CC50 (SK-BR-3)?
**A.** 14.7 µM

**Q.** What about the IC (TGI) (SK-BR-3) of the same molecule?
**A.** 4.8 µM

**Q.** And the GI50 (LoVo-Dox)?
**A.** 0.909 µM

**Q.** And the CC50 (LoVo-Dox)?
**A.** 9.85 µM

**Q.** What about the IC (TGI) (LoVo-Dox) of the same molecule?
**A.** 2.95 µM

**Q.** And the GI50 (DU-145)?
**A.** 2.2 µM

**Q.** What about the CC50 (DU-145) of the same molecule?
**A.** 11.7 µM

**Q.** What about the IC (TGI) (DU-145) of the same molecule?
**A.** 5.08 µM

**Q.** And the GI50 (IGROV-ET)?
**A.** 0.64 µM

**Q.** What about the CC50 (IGROV-ET) of the same molecule?
**A.** 15.2 µM

**Q.** What about the IC (TGI) (IGROV-ET) of the same molecule?
**A.** 2.86 µM

**Q.** What about the GI50 (PANC-1) of the same molecule?
**A.** 1.93 µM

**Q.** What about the CC50 (PANC-1) of the same molecule?
**A.** 13.2 µM

**Q.** What about the IC (TGI) (PANC-1) of the same molecule?
**A.** 5.05 µM

**Q.** What about the GI50 (SK-MEL-28) of the same molecule?
**A.** 2.34 µM

**Q.** What about the CC50 (SK-MEL-28) of the same molecule?
**A.** 10.1 µM

**Q.** And the IC (TGI) (SK-MEL-28)?
**A.** 4.87 µM

**Q.** And the GI50 (LNCaP)?
**A.** 1.13 µM

**Q.** What about the CC50 (LNCaP) of the same molecule?
**A.** 9.61 µM

**Q.** And the IC (TGI) (LNCaP)?
**A.** 3.47 µM

**Q.** What about the GI50 (HT-29) of the same molecule?
**A.** 2.92 µM

**Q.** What about the CC50 (HT-29) of the same molecule?
**A.** 11.1 µM

**Q.** What about the IC (TGI) (HT-29) of the same molecule?
**A.** 5.7 µM

**Q.** What about the GI50 (K-562) of the same molecule?
**A.** 2.9 µM

**Q.** And the CC50 (K-562)?
**A.** 15.2 µM

**Q.** And the IC (TGI) (K-562)?
**A.** 6.75 µM

**Q.** What about the GI50 (A-549) of the same molecule?
**A.** 2.84 µM

**Q.** What about the CC50 (A-549) of the same molecule?
**A.** 10.9 µM

**Q.** What about the IC (TGI) (A-549) of the same molecule?
**A.** 5.57 µM

**Q.** For `COc1cc(-c2c3n(c4c(=O)oc5cc(OC(=O)[C@@H](N)COCc6ccccc6)c(OC)cc5c24)CCc2c-3cc(OC)c(OC)c2OC(=O)[C@@H](N)COCc2ccccc2)ccc1OC(=O)[C@@H](N)COCc1ccccc1` [Compound 66], which GI50 (SKOV-3) is on record?
**A.** 2.85 µM

**Q.** And the CC50 (SKOV-3)?
**A.** 7.12 µM

**Q.** And the IC (TGI) (SKOV-3)?
**A.** 6.28 µM

**Q.** And the CC50 [1]?
**A.** 4.93 µM

**Q.** And the GI50 (H-MEC-1)?
**A.** 1.52 µM

**Q.** What about the IC (TGI) (H-MEC-1) of the same molecule?
**A.** 2.73 µM

**Q.** What about the GI50 (IGROV) of the same molecule?
**A.** 1.35 µM

**Q.** What about the CC50 (IGROV) of the same molecule?
**A.** 6.75 µM

**Q.** What about the IC (TGI) (IGROV) of the same molecule?
**A.** 3.02 µM

**Q.** What about the GI50 (LoVo) of the same molecule?
**A.** 2.19 µM

**Q.** What about the CC50 (LoVo) of the same molecule?
**A.** 7.12 µM

**Q.** And the IC (TGI) (LoVo)?
**A.** 7.12 µM

**Q.** And the GI50 (SK-BR-3)?
**A.** 0.434 µM

**Q.** What about the CC50 (SK-BR-3) of the same molecule?
**A.** 7.12 µM

**Q.** What about the IC (TGI) (SK-BR-3) of the same molecule?
**A.** 1.82 µM

**Q.** What about the GI50 (LoVo-Dox) of the same molecule?
**A.** 1.91 µM

**Q.** What about the CC50 (LoVo-Dox) of the same molecule?
**A.** 7.12 µM

**Q.** What about the IC (TGI) (LoVo-Dox) of the same molecule?
**A.** 5.56 µM

**Q.** What about the GI50 (DU-145) of the same molecule?
**A.** 1.73 µM

**Q.** What about the CC50 (DU-145) of the same molecule?
**A.** 7.12 µM

**Q.** And the IC (TGI) (DU-145)?
**A.** 3.65 µM

**Q.** And the GI50 (IGROV-ET)?
**A.** 1.22 µM

**Q.** What about the CC50 (IGROV-ET) of the same molecule?
**A.** 6.87 µM

**Q.** What about the IC (TGI) (IGROV-ET) of the same molecule?
**A.** 2.9 µM

**Q.** What about the GI50 (PANC-1) of the same molecule?
**A.** 1.95 µM

**Q.** What about the CC50 (PANC-1) of the same molecule?
**A.** 7.12 µM

**Q.** And the IC (TGI) (PANC-1)?
**A.** 7.12 µM

**Q.** What about the GI50 (SK-MEL-28) of the same molecule?
**A.** 1.42 µM

**Q.** And the CC50 (SK-MEL-28)?
**A.** 4.55 µM

**Q.** And the IC (TGI) (SK-MEL-28)?
**A.** 2.55 µM

**Q.** What about the GI50 (LNCaP) of the same molecule?
**A.** 0.89 µM

**Q.** What about the CC50 (LNCaP) of the same molecule?
**A.** 4.03 µM

**Q.** What about the IC (TGI) (LNCaP) of the same molecule?
**A.** 1.89 µM

**Q.** And the GI50 (HT-29)?
**A.** 2.77 µM

**Q.** What about the CC50 (HT-29) of the same molecule?
**A.** 7.12 µM

**Q.** And the IC (TGI) (HT-29)?
**A.** 6.77 µM

**Q.** What about the GI50 (K-562) of the same molecule?
**A.** 0.982 µM

**Q.** What about the CC50 (K-562) of the same molecule?
**A.** 7.12 µM

**Q.** And the IC (TGI) (K-562)?
**A.** 2.8 µM

**Q.** What about the GI50 (A-549) of the same molecule?
**A.** 1.86 µM

**Q.** What about the CC50 (A-549) of the same molecule?
**A.** 6.43 µM

**Q.** And the IC (TGI) (A-549)?
**A.** 3.46 µM
